Legend:
YH-15 phytase [1] = assay: Enzyme activity of phytase according to metal ions and inhibitors; format: biochemical, Citrobacter braakii YH-15; settings: for inhibition of enzyme activity by metal ions: concentration of 10 mM; for enzyme activity after being left with denaturant: 37° C. for 2 hours, 8 M urea or 0.0024% SDS
Text: (§1) The present inventors investigated the effect of metal ions and inhibitors on the enzyme activity of phytase of the present invention.

[2] = test system: O=P(O)(O)O[C@H]1[C@H](OP(=O)(O)O)[C@@H](OP(=O)(O)O)[C@H](OP(=O)(O)O)[C@@H](OP(=O)(O)O)[C@H]1OP(=O)(O)O; assay: Substrate kinetics of purified YH-15 phytase (phosphate release from phytate); format: biochemical, Citrobacter braakii YH-15; settings: other: substrate phytate (sodium phytate); pH 5.0; 37.0 °C
Description: (§2) The present inventors measured the activity of phytase produced by the 5 strains above (Table 1). Inorganic phosphorus quantitative method of Fiske, et al. was used for measuring the activity of phytase in culture solution and in cell precipitate. Particularly, 400 μl of substrate solution (2 mM sodium phytate in 0.1 M sodium acetate buffer, pH 5.0) was added to 100 μl of enzyme solution diluted by required dilution ratio, which was reacted at 37° C. for 30 minutes. Then, 500 μl of 5% TCA solution was added thereto, which was just left at 0° C. for 10 minutes to stop the reaction. As for a control (blank), TCA (trichloroacetic acid) solution was added to enzyme solution to inactivate the enzyme and then substrate solution was added thereto, which was left for a while. 4 ml of reagent A (1:1:1:2 ratio of 6 N H2SO4/2.5% ammonium molybdate/10% ascorbic acid/H2O) was added, followed by reaction at 37° C. for 30 minutes. Then, activities in enzyme solution and in a control were measured at 820 nm. 1 unit of the enzyme was determined to be the enzyme amount releasing 1 μmole of phosphate for 1 minute.
(§3) The enzyme activity of phytase included in each sample prepared from each purification stage of the above Example <3-2> was investigated (Table 3). Protein content was quantified by BCA protein quantification kit provided by Sigma, co. At that time, BSA (bovine serum albumin) was used as a standard protein. Specific activity of the purified phytase to phytate was 3,457 units/mg, recovery rate was 28%, and the final phytase was purified by 12,950 fold (FIG. 2).
(§4) Substrate specificity of phytase to various phosphate ester compounds was investigated.

YH-15 phytase [3] = assay: Substrate specificity of phytase; format: biochemical, Citrobacter braakii YH-15; settings: for Relative activity (%): substrate, phytate = 100
Text: as §4

[4] = target: T1, Citrobacter braakii YH-15 phytase, wild type, SEQ. ID. No 7 (N-terminal SEQ. ID. No 2) (Citrobacter braakii, UniProt Q2VY22); assay: Enzyme activity of YH-15 phytase according to metal ions and inhibitors; format: biochemical; settings: for effect of inhibitor on enzyme activity: concentration not given, reagents involved in disulfate bond
T1 construct: signal peptide removed
Description: as §2, §1

[5] = target: T1, Citrobacter braakii YH-15 phytase, wild type, SEQ. ID. No 7 (N-terminal SEQ. ID. No 2); assay: Substrate kinetics of purified YH-15 phytase (phosphate release from phytate); format: biochemical; settings: substrate phytate (sodium phytate)
Description: as §2, §3, §4

[6] = Specific activity and kinetics of purified phytase to phytate; format: biochemical, Citrobacter braakii YH-15
Description: as §2
The enzyme activity of phytase included in each sample prepared from each purification stage of the above Example <3-2> was investigated (Table 3). Protein content was quantified by BCA protein quantification kit provided by Sigma, co. […]

[7] = Enzyme activity of phytase according to temperature and pH; format: biochemical, Citrobacter braakii YH-15
Description: The present invention investigated an enzyme activity of phytase, according to temperature and pH, purified through chromatography using Mono S column.
When the enzyme was left at 55° C. for 10 minutes, 75% of the activity was still remained.
50% of the enzyme activity was still maintained at pH 2.5. […] But, as the protein was left under pH 3.0 for 4 hours, the enzyme activity was almost lost. From temperature and pH test with the protein, phytase of the present invention was believed to be very suitable for being used as a feed additive for monogastric animals.

proteases = assay: Effect of proteases on the enzyme activity of phytase; format: biochemical
Description: The present inventors investigated the effect of proteases on the enzyme activity of phytase. Particularly, phytase was left at 37° C. for 2 hours with pepsin and trypsin, resulting in no changes in the enzyme activity. But, as papain, elastase and pancreatin were added, 70˜85% of the enzyme activity remained.

O=S(=O)([O-])[O-].[Zn+2] [ZnSO4]
inhibition of enzyme activity by metal ions (YH-15 phytase [1]): strongly inhibited
Relative activity (%) (YH-15 phytase [1]; metal ion or inhibitor 8 mM): 33%

[Ca+2].[Cl-].[Cl-] [CaCl2]
Relative activity (%) (YH-15 phytase [1]; metal ion or inhibitor 6 mM): 87%

Citrobacter braakii YH-15 phytase, wild type, SEQ. ID. No 7 (N-terminal SEQ. ID. No 2) (Citrobacter braakii)
Km [2]: 460 µM
Vmax [2]: 6,027 U/mg

[Cl][Cd][Cl] [CdCl2]
Relative activity (%) (YH-15 phytase [1]; metal ion or inhibitor 6 mM): 101%

O=P(O)(O)O[C@H]1O[C@H](CO)[C@@H](O)[C@H](O)[C@H]1O [Glucose-1-phosphate]
Relative activity (%) (YH-15 phytase [3]): 0.42%

O=S(=O)([O-])[O-].[Ni+2] [NiSO4]
Relative activity (%) (YH-15 phytase [1]; metal ion or inhibitor 6 mM): 88%

Nc1ncnc2c1ncn2[C@@H]1O[C@H](COP(=O)(O)OP(=O)(O)OP(=O)(O)O)[C@@H](O)[C@H]1O [ATP]
Relative activity (%) (YH-15 phytase [3]): 1.86%

O=C[C@H](O)[C@@H](O)[C@H](O)[C@H](O)COP(=O)(O)O [Glucose-6-phosphate]
Relative activity (%) (YH-15 phytase [3]): 0.33%

O=C[C@@H](O)[C@@H](O)[C@H](O)[C@H](O)COP(=O)(O)O [Mannose-6-phosphate]
Relative activity (%) (YH-15 phytase [3]): 0.01%

CCCCCCCCCCCCOS(=O)(=O)[O-].[Na+] [SDS]
enzyme activity after being left with denaturant (YH-15 phytase [1]): almost lost

O=C(O)CN(CCN(CC(=O)O)CC(=O)O)CC(=O)O [EDTA]
activity at 6000 µM ([4]; read-out: Relative activity (%)): 98%

Nc1ncnc2c1ncn2[C@@H]1O[C@H](COP(=O)(O)OP(=O)(O)O)[C@@H](O)[C@H]1O [ADP]
Relative activity (%) (YH-15 phytase [3]): 1.04%

O=P(O)(O)O[C@H]1[C@H](OP(=O)(O)O)[C@@H](OP(=O)(O)O)[C@H](OP(=O)(O)O)[C@@H](OP(=O)(O)O)[C@H]1OP(=O)(O)O [phytate, myo-inositol 1,2,3,4,5,6 hexakis dihydrogen phosphate]
Vmax [5]: 6,027 U/mg

[Cl][Mn][Cl] [MnCl2]
Relative activity (%) (YH-15 phytase [1]; metal ion or inhibitor 6 mM): 92%

[Cl-].[K+] [KCl]
Relative activity (%) (YH-15 phytase [1]; metal ion or inhibitor 6 mM): 95%

[Cl-].[Cl-].[Mg+2] [MgCl2]
Relative activity (%) (YH-15 phytase [1]; metal ion or inhibitor 6 mM): 71%

O=C(CO)[C@@H](O)[C@H](O)[C@H](O)COP(=O)(O)O [Fructose-6-phosphate]
Relative activity (%) (YH-15 phytase [3]): 0.75%

[Cl][Fe]([Cl])[Cl] [FeCl3]
inhibition of enzyme activity by metal ions (YH-15 phytase [1]): strongly inhibited
Relative activity (%) (YH-15 phytase [1]; metal ion or inhibitor 6 mM): 19%

OCCS [2-mercaptoethanol]
effect of inhibitor on enzyme activity [4]: hardly affected

OC(CS)C(O)CS (centres unmarked) [dithothreitol]
effect of inhibitor on enzyme activity [4]: hardly affected

O=[N+]([O-])c1ccc(OP(=O)(O)O)cc1 [p-nitrophenyl phosphate]
Relative activity (%) (YH-15 phytase [3]): 11.27%

O=P(O)(O)O[C@H]1[C@H](OP(=O)(O)O)[C@@H](OP(=O)(O)O)[C@H](OP(=O)(O)O)[C@@H](OP(=O)(O)O)[C@H]1OP(=O)(O)O [Phytate, myo-inositol 1,2,3,4,5,6 hexakis dihydrogen phosphate]
ability of phytase to decompose the substrate (YH-15 phytase [3]): strong ability to decompose
Relative activity (%) (YH-15 phytase [3]): 100%

O=P([O-])([O-])OP(=O)([O-])[O-].[Na+].[Na+].[Na+].[Na+] [Tetrasodium pyrophosphate]
Relative activity (%) (YH-15 phytase [3]): 5.95%

[Cl-].[Na+] [NaCl]
inhibition of enzyme activity (YH-15 phytase [1]; concentration of 1 M): 50%
Relative activity (%) (YH-15 phytase [1]; metal ion or inhibitor 6 mM): 102%
Relative activity (%) (YH-15 phytase [1]; metal ion or inhibitor 1000 mM): 54%

NC(N)=O [urea]
enzyme activity after being left with denaturant (YH-15 phytase [1]): almost lost
enzyme activity after incubation with inhibitor ([4]; 8 M, 37° C., 2 hours): almost lost

O=P(O)(O)OCC(O)CO (centres unmarked) [Glycerophosphate]
Relative activity (%) (YH-15 phytase [3]): 0.57%

O=S(=O)([O-])[O-].[Cu+2] [CuSO4]
inhibition of enzyme activity by metal ions (YH-15 phytase [1]): strongly inhibited
Relative activity (%) (YH-15 phytase [1]; metal ion or inhibitor 6 mM): 38%

B1: YH-15 phytase: novel phytase enzyme of about 47 kDa produced by Citrobacter braakii YH-15, SEQ. ID. No 7 (protein)
chain: MSTFIIRLLIFSLLCGSFSIHAEEQNGMKLERVVIVSRHGVRAPTKFTPIMKDVTPDQWPQWDVPLGWLTPRGGELVSELGQYQRLWFTSKGLLNNQTCPSPGQVAVIADTDQRTRKTGEAFLAGLAPKCQIQVHYQKDEEKNDPLFNPVKMGKCSFNTLKVKNAILERAGGNIELYTQRYQSSFRTLENVLNFSQSETCKTTEKSTKCTLPEALPSEFKVTPDNVSLPGAWSLSSTLTEIFLLQEAQGMPQVAWGRITGEKEWRDLLSLHNAQFDLLQRTPEVARSRATPLLDMIDTALLTNGTTENRYGIKLPVSLLFIAGHDTNLANLSGALDLKWSLPGQPDNTPPGGELVFEKWKRTSDNTDWVQVSFVYQTLRDMRDIQPLSLEKPAGKVDLKLIACEEKNSQGMCSLKSFSRLIKEIRVPECAVTE
modifications: Citrobacter braakii YH-15; PEPTIDE (1)..(433) phytase
Specific activity of the purified phytase to phytate ([6]; final purified phytase): 3,457 units/mg
Specific activity ([6]; purification stage Mono SHR 5/5 (final)): 3,457 U/mg
pH of highest activity [7]: 4.0
temperature of highest activity [7]: 50 °C
activity on storage at pH 3.0-4.5 ([7]; 37° C., pH 3.0-4.5, 7 days): very stably maintained
activity remained at pH 7.0 ([7]; 37° C., pH 7.0, 7 days): 50%
activity after holding at 50° C. ([7]; 50° C. for 1 hour): stably maintained
activity remained after heat ([7]; left at 55° C. for 10 minutes): 75%
enzyme activity maintained at pH 2.5 ([7]; pH 2.5): 50%
activity after being left under pH 3.0 ([7]; under pH 3.0 for 4 hours): almost lost
enzyme activity after pepsin (proteases; 37° C. for 2 hours with pepsin): no changes
enzyme activity after trypsin (proteases; 37° C. for 2 hours with trypsin): no changes
enzyme activity remained after elastase (proteases; elastase added): 70˜85%
enzyme activity remained after pancreatin (proteases; pancreatin added): 70˜85%
enzyme activity remained after papain (proteases; papain added): 70˜85%

Source: US7442398B2, “Phytase produced from Citrobacter braakii” (Republic of National Fisheries Research and Development …, priority 2003, dated 2008)
